From patent US9492464B2, “Composition for preventing or treating side effect of steroid in subject comprising acetylsalicylic acid and use thereof” (Samsung Electronics Co., Ltd., priority 2014, dated 2016)

Key:
Format in all cases: cell-based, mouse
glucocorticoid receptor = assay: Immunoblotting of phosphorylated glucocorticoid receptor (pGR) in differentiated C2C12 cells; conditions: 40, 400 or 4000 μM Aspirin pre-treatment 24 hours, then 2 μM dexamethasone 24 hours; as amount of Aspirin increases, FIG. 1
Description: First, C2C12 cell lines (mouse gastrocnemius muscle, ATCC® CRL-1772™) were seeded in a 60 mm dish in 10% FBS/DMEM and incubated at 37° C. in a 5% CO2 incubator. When the cells formed 70% confluent, the culture medium was replaced with 2% FBS/DMEM and the cells were cultured for 4 days to completely induce differentiation into muscle cells. C2C12 cell lines are mouse myoblast cell lines obtained by continuous culture of myoblast cells cultured from gastrocnemius muscle of C3H mice.
When C2C12 cells were completely differentiated into muscle cells, the culture medium was removed therefrom, and 4 ml of a fresh culture medium including 40 μM, 400 μM, or 4000 μM of Aspirin (Sigma Aldrich) was added thereto, and then the cells were cultured for 24 hours. 2 μM of dexamethasone (Sigma Aldrich) was added to the cultured cells and the cells were further cultured for 24 hours. A negative control group was not treated with acetylsalicylic acid and dexamethasone.
The culture medium was removed therefrom, and the cells were collected. Then, 500 μl of RIPA (20 mM Tris-HCl (pH 7.5), 150 mM NaCl, 1 mM Na2EDTA, 1 mM EGTA, 1% NP-40, 1% (w/v) sodium deoxycholate, 2.5 mM sodium pyrophosphate, 1 mM beta-glycerophosphate, 1 mM Na3VO4, and 1 μg/ml leupeptin) lysis buffer was added thereto. The cells were lysed to obtain lysates. […]

Atrogin-1 = assay: Real time PCR of Atrogin-1 mRNA in differentiated C2C12 cells; conditions: 400 μM Aspirin 24 hours, then 2 μM dexamethasone 24 hours, normalized to GAPDH, FIG. 3A
Description: (§1) As described above with reference to Example 1(2), C2C12 cells were completely differentiated into muscle cells, and 4 ml of a fresh culture medium including 400 μM of Aspirin (Sigma Aldrich) was added thereto, and then the cells were cultured for 24 hours. 2 μM of dexamethasone (Sigma Aldrich) was added to the cultured cells, and the cells were cultured for 24 hours. The culture medium was removed therefrom, and the cells were collected. A negative control group was not treated with acetylsalicylic acid and dexamethasone.
(§2) A Trizol reagent (Invitrogen) was added to the collected cells, and total RNA was separated therefrom according to manufacturer's protocols. Complementary DNA (cDNA) was synthesized from the separated total RNA by using a reverse transcriptase. Amounts of mRNA of Atrogin-1 and MuRF-1 were quantified using a real time PCR device (MyiQPCR instrument, BioRad) that is a device measuring SYBR Green. The results were normalized with respect to an amount of GAPDH mRNA. […]
(§3) Values obtained via amplification were normalized by GAPDH gene, and relative expression levels of mRNA of Atrogin-1 and MURF-1 were quantified. The quantified relative expression levels (arbitrary unit (AU)) of mRNA of Atrogin-1 and MURF-1 are illustrated in FIGS. 3A and 3B, respectively, […]

MuRF-1 = assay: Real time PCR of MuRF-1 mRNA in differentiated C2C12 cells; conditions: 400 μM Aspirin 24 hours, then 2 μM dexamethasone 24 hours, normalized to GAPDH, FIG. 3B
Description: as §1, §2, §3

**Q.** For `CC(=O)Oc1ccccc1C(=O)O` [Aspirin, 2-(acetyloxy)benzoic acid], which “amount of glucocorticoid receptor GR phosphorylated by dexamethasone” value (glucocorticoid receptor) is on record?
**A.** The value was “decreases”.

**Q.** What about the “expression of mRNA of Atrogin-1” value (Atrogin-1) of the same molecule?
**A.** The value was “did not increase”.

**Q.** What about the “expression of mRNA of MuRF1” value (MuRF-1) of the same molecule?
**A.** Its value is “did not increase”.
